Assay results: patent publication US5885968A, “Triantennary cluster glycosides, their preparation and use” (Rijksuniversiteit te Leiden, priority 1992, dated 1999)

Legend:
[1] = system: rats; assay: Serum cholesterol lowering after intravenous injection in rats; format: in vivo, rat
Protocol: This was verified as follows. Male rats (250-300 g) were anesthetized by means of ether, whereafter 500 gl PBS, having dissolved therein 0.56 mg, 0.18 mg, 0.056 mg or 0 mg TG(20 Å)-chol (formula 20) or 0.56 mg tris-glu-chol (formula 21): [drawing 19] was injected into the vena penis. At the times indicated in FIG. 3, blood samples of 300 μl were taken by means of orbital puncture. The blood samples were centrifuged (5 min; 1500 g) and the serum was used for a cholesterol assay by means of the CHOD-PAP kit of Boehringer Mannheim. 24 Hours after injection the rat was bled. The blood was centrifuged whereafter the serum was pipeted. Then the serum was subjected to gradient density ultracentrifugation and the various lipoprotein fractions were isolated: HDL (1.21<d<1.05), LDL (1.050<d<1.019), IDL (1.019<d<1.006) and VLDL (d<1.006). Finally, the total cholesterol concentrations of these lipoprotein fractions were assayed by means of the CHOD-PAP kit.

[2] = system: rats; assay: Biliary secretion in catheterized rats after intravenous injection; format: in vivo, rat; conditions: 0.56 mg i.v., FIG. 5
Protocol: Intravenous injection of TG(20 Å)C (0.56 mg, dissolved in phosphate buffered saline) in rats, provided with catheters in duodenum, bile-duct and heart vene, also enhances the biliary secretion of bile acids from the liver leaving the biliary flow and the biliary secretion of cholesterol unaltered. Apparently, the TG(20 Å)C-induced increase in the uptake of lipoprotein-derived cholesterol is efficiently coupled to bile-acid secretion in rats. This might have important implications for potential application of TG(20 Å)C as a hypocholesterolemic therapeutic. (See FIG. 5.)

[3] = system: rats; assay: In vivo behaviour of LDL charged with glycolipid after intravenous injection into rats; set-up: species or system rat
Text: The so prepared compound TG(20 Å)-chol (formula 20): [drawing 22] can also be used to direct LDL to the hepatic parenchymal cell. To investigate this, isolated low-density lipoprotein was charged with TG(20 Å)-chol according to a procedure that is known per se and the in vivo behaviour of the particle was studied. […] This then leads to a stabilization of the LDL level in the bloodstream after a few minutes. Accumulation of TG(20 Å)-chol in LDL, then, changes the physiological rate of LDL. The complex is taken up by the liver via a galactose-specific route. […] Now it can be verified whether the complex is taken up by the parenchymal or by the Kupffer cell on the liver. […] This is an indication that charging with this compound leads to liver uptake via the asialoglycoprotein receptor in the parenchymal cell.

[4] = system: rats; assay: In vivo fate of lipoprotein (a) charged with glycolipid in rats; set-up: species or system rat
Text: The so prepared TG(20 Å)-chol (formula 20): [drawing 24] can also be used to direct apo(a) to the hepatic parenchymal cell. High levels of lp(a) are correlated with the occurence of coronary and vascular diseases. To date, an adequate clinical therapy to alleviate the pathogenesis is not available. To investigate whether TG(20 Å)C can be used to stimulate the hepatic uptake and processing of lp(a) this, isolated lp(a) was charged with TG(20 Å)-chol according to a procedure that is known per se and the in vivo behaviour of the particle was studied. Lp(a) (50 μg) in PBS was incubated at 20° C. for 30 min with 0, 5, 15 and 50 μg TG(20 Å) (-chol). This charge led to a changed behaviour of the apo(a) after intravenous injection into rats. This is illustrated in FIG. 8. […] On account of the high […] of TG(20 Å)-chol, very rapidly an exchange of this compound occurs between lp(a) and other lipoproteins and lipid compartments. This then leads to a stabilization of the lp(a) level in the bloodstream after a few minutes.
^125 I-Lp(a) (50 μg) was mixed with 50 μg of TG(20 Å)C or TG(4 Å)C in 500 μl PBS. After 30 min at room temperature, the mixtures were injected into rats at a dose of 50 μg of apolipoprotein/kg body weight. Ten minutes after injection, parenchymal, endothelial and Kupffer cells were isolated from the liver and counted for radioactivity. Values are expressed as 10-3.% of the injected dose per mg of cellular protein and are means of 3 experiments ± s.e.m.

[5] = 125I-Lp(a) 50 μg + 50 μg glycolipid, rats, 10 min after injection, mean ± s.e.m., 3 experiments

CC(C)CCC[C@@H](C)[C@H]1CC[C@H]2[C@@H]3CC=C4C[C@@H](OC(=O)CNC(=O)CCCCC(=O)NCC(=O)NC(COCOCCOCCOCCOCCO[C@@H]5O[C@H](CO)[C@H](O)[C@H](O)[C@H]5O)(COCOCCOCCOCCOCCO[C@@H]5O[C@H](CO)[C@H](O)[C@H](O)[C@H]5O)COCOCCOCCOCCOCCO[C@@H]5O[C@H](CO)[C@H](O)[C@H](O)[C@H]5O)CC[C@]4(C)[C@H]3CC[C@]12C [TG(20 Å)-chol, N,N-[tris-O-(3,6,9-trioxaundecanyl-β-D-galactopyranosyl)methoxymethyl]methyl-N^α -(1-(6-(5-cholesten-3β-yloxy)glycyl)adipyl)glycinamide]
Cholesterol level 24 hours after single administration ([1]; 0.56 mg, 24 hours): has not returned to the control value
LDL level ([1]; 24 h after injection): likewise lowered
Concentrations of the other lipoproteins ([1]; 24 h after injection (IDL, VLDL)): not significantly affected
Serum HDL level ([1]; 24 h after injection, FIG. 4): decreases dose-dependently and significantly
Total serum cholesterol level ([1]; injection into vena penis, 0.056-0.56 mg, FIG. 3): decreases
Increase in potency compared with tris-gal-chol ([1]; serum cholesterol lowering, comparison with ref 15): ≥ 25 factor
Biliary flow [2]: unaltered
Biliary secretion of bile acids [2]: enhances
Biliary secretion of cholesterol [2]: unaltered
Effect of asialofetuin preinjection on uptake of charged LDL ([3]; 50 mg/kg asialofetuin 1 min before injection): significant inhibition of the uptake by the liver parenchymal cell
Clearance from bloodstream and liver uptake of charged 125I-LDL ([3]; LDL 50 μg charged with 5, 15, 50 μg, i.v. rats, FIG. 6): cleared and incorporated into the liver much faster
Liver cell type location of charged LDL taken up ([3]; rats, FIG. 7): largely located in the parenchymal cell
Effect of N-acetyl-galactosamine preinjection on induced hepatic uptake of 125I-lp(a) ([4]; 150 mg N-acetyl-galactosamine, rat, data not shown): can be inhibited
Contribution to hepatic uptake of Lp(a), EC (endothelial cells) [4, 5]: 8.3 ± 2%
Contribution to hepatic uptake of Lp(a), KC (Kupffer cells) [4, 5]: 37.3 ± 9%
Clearance from bloodstream and liver uptake of charged apo(a)/lp(a) particles ([4]; Lp(a) 50 μg charged with 5, 15, 50 μg, i.v. rats, FIG. 8): cleared and incorporated into the liver much faster
